Measured values reported in patent US8557839B2, “Fused ring azadecalin glucocorticoid receptor modulators” (Corcept Therapeutics, Inc., priority 2004, dated 2013).

Columns and labels:
glucocorticoid receptors [1] = molecular target: T1, glucocorticoid receptors (Homo sapiens, UniProt P04150); experiment: GR functional assay using SW1353/MMTV-5 cells (dexamethasone-induced luciferase); format: cell-based; set-up: contains endogenous glucocorticoid receptors; endogenous in cells; host or cells: SW1353/MMTV-5 (human chondrosarcoma, stably carrying the pMAMneo-Luc reporter)
T1 sequence (P04150 1-777): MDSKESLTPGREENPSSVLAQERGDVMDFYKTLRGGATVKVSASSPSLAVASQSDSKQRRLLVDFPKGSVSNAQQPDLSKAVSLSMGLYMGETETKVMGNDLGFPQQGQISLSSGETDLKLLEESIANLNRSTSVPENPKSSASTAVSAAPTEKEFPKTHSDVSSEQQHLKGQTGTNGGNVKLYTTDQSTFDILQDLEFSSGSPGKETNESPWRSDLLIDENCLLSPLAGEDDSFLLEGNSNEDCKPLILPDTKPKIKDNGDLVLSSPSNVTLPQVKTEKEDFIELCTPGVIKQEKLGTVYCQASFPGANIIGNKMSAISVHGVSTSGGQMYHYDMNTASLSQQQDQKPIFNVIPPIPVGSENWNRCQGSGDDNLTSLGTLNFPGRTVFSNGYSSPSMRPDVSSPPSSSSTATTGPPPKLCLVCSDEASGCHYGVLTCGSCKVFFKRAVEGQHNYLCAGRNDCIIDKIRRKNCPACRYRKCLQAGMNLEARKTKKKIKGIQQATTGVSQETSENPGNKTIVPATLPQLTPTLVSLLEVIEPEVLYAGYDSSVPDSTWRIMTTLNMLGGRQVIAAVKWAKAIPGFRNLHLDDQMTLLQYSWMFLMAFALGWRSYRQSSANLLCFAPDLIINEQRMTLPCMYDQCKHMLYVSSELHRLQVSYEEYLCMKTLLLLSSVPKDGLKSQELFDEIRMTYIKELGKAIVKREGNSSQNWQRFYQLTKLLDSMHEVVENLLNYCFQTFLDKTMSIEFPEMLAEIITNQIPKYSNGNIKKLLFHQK
Experimental: SW1353/MMTV-5 is an adherent human chondrosarcoma cell line that contains endogenous glucocorticoid receptors. It was transfected with a plasmid (pMAMneo-Luc) encoding firefly luciferase located behind a glucocorticoid-responsive element (GRE) derived from a viral promoter (long terminal repeat of mouse mammary tumor virus). A stable cell line SW1353/MMTV-5 was selected with geneticin, which was required to maintain this plasmid.
SW1353/MMTV-5 cells were distributed in 96-well plates and incubated in medium (without geneticin) for 24 hrs (in the absence of CO2).

glucocorticoid receptors [2] = molecular target: T1, glucocorticoid receptors; experiment: Glucocorticoid receptor binding displacement assay with 3H-dexamethasone; set-up: This GR was a full-length steroid hormone receptor; host or cells: recombinant baculovirus-infected insect cells
Experimental: The source of the receptor was recombinant baculovirus-infected insect cells. This GR was a full-length steroid hormone receptor likely to be associated with heat-shock and other endogenous proteins.
For the Primary Screen, test compounds were tested at 1 μM in duplicate. These compounds were diluted from 10 mM stock in 100% DMSO. After dilution to 100 μM, 5 μl were added to 245 μl assay buffer to obtained 2 μM compound and 2% DMSO.
For the IC50 determinations, test compounds were tested at 6 concentrations in duplicate (concentration range depends on % inhibition binding that was obtained in the Primary Screen). Test compounds were diluted from 10 mM stock in 100% DMSO. The tested solutions were prepared at 2× final assay concentration in 2% DMSO/assay buffer.
All reagents and the assay plate were kept on ice during the addition of reagents. […] After the additions, the incubation mixture was mixed and incubated for 2.5 hrs at 4° C.
After 2.5 hrs incubation, unbound counts were removed with dextran coated charcoal (DCC) as follows: 25 μl of DCC solution (10% DCC in assay buffer) was added to all wells and mixed (total volume 225 μl). The plate was centrifuged at 4000 rpm for 10 minutes at 4° C. 75 μl of the supernatants (i.e.⅓ of total volume) was carefully pipetted into an optiplate. 200 μl of scintillation cocktail were added (Microscint-40, Packard Bioscience. B.V.). The plate was vigorously shaken for approx. 10 minutes and counted on Topcount.
The IC50 values were converted to Ki (the inhibition constant) using the Cheng-Prusoff equation.
Reagents: Assay buffer: 10 mM potassium phosphate buffer pH 7.6 containing 5 mM DTT, 10 mM sodium molybdate, 100 μM EDTA and 0.1% BSA.

[3] = Ki from IC50 by Cheng-Prusoff, 2.5 nM 3H-dexamethasone, read-out: GR Binding

SMILES: CCCCn1ncc2c1C=C1CCN(S(=O)(=O)c3ccc(C(C)(C)C)cc3)C[C@@]1(COCCOC)C2
- Ki (glucocorticoid receptors [1]; read-out: GR Functional): 10 to 100 nM
- Ki (glucocorticoid receptors [2]; [3]): < 10 nM

SMILES: Cc1ccc(S(=O)(=O)N2CCC3=Cc4c(cnn4-c4ccc(F)cc4)C[C@]3(CN(C)C)C2)cc1
- Ki (glucocorticoid receptors [1]; read-out: GR Functional): 10 to 100 nM
- Ki (glucocorticoid receptors [2]; [3]): < 10 nM

SMILES: CCN(CC)C[C@]12Cc3cnn(-c4ccc(F)cc4)c3C=C1CCN(S(=O)(=O)c1ccc(OC)cc1)C2
- Ki (glucocorticoid receptors [1]; read-out: GR Functional): 10 to 100 nM
- Ki (glucocorticoid receptors [2]; [3]): < 10 nM

SMILES: CC(C)(C)c1ccc(S(=O)(=O)N2CCC3=Cc4c(cnn4-c4ccc(F)cc4)C[C@]3(Cc3ccccc3)C2)cc1
- Ki (glucocorticoid receptors [1]; read-out: GR Functional): < 10 nM
- Ki (glucocorticoid receptors [2]; [3]): < 10 nM

SMILES: COc1ccc(S(=O)(=O)N2CCC3=Cc4c(cnn4-c4ccc(F)cc4)C[C@]3(CN3CCCCC3)C2)cc1
- Ki (glucocorticoid receptors [1]; read-out: GR Functional): 10 to 100 nM
- Ki (glucocorticoid receptors [2]; [3]): 10 to 100 nM

SMILES: CN(C)CC[C@]12Cc3cnn(-c4ccc(F)cc4)c3C=C1CCN(S(=O)(=O)c1ccc(C(C)(C)C)cc1)C2
- Ki (glucocorticoid receptors [1]; read-out: GR Functional): 10 to 100 nM
- Ki (glucocorticoid receptors [2]; [3]): 10 to 100 nM

SMILES: CN(CCO)C[C@]12Cc3cnn(-c4ccc(F)cc4)c3C=C1CCN(S(=O)(=O)c1ccc(C(C)(C)C)cc1)C2
- Ki (glucocorticoid receptors [1]; read-out: GR Functional): < 10 nM
- Ki (glucocorticoid receptors [2]; [3]): < 10 nM

SMILES: CC(O)[C@]12Cc3cnn(-c4ccc(F)cc4)c3C=C1CCN(S(=O)(=O)c1ccc(C(C)(C)C)cc1)C2 (stereo partly shown)
- Ki (glucocorticoid receptors [1]; read-out: GR Functional): 10 to 100 nM
- Ki (glucocorticoid receptors [2]; [3]): < 10 nM

SMILES: CCCCn1ncc2c1C=C1CCN(S(=O)(=O)c3ccc(C(C)(C)C)cc3)C[C@@]1(CN(C)C)C2
- Ki (glucocorticoid receptors [1]; read-out: GR Functional): > 100 nM
- Ki (glucocorticoid receptors [2]; [3]): 10 to 100 nM

SMILES: COC[C@]12Cc3cnn(C(C)C)c3C=C1CCN(S(=O)(=O)c1ccc(C(C)(C)C)cc1)C2
- Ki (glucocorticoid receptors [1]; read-out: GR Functional): > 100 nM
- Ki (glucocorticoid receptors [2]; [3]): 10 to 100 nM

SMILES: COCCOC[C@]12Cc3cnn(C(C)C)c3C=C1CCN(S(=O)(=O)c1ccc(C(C)(C)C)cc1)C2
- Ki (glucocorticoid receptors [1]; read-out: GR Functional): 10 to 100 nM
- Ki (glucocorticoid receptors [2]; [3]): < 10 nM

SMILES: CC(C)(C)c1ccc(S(=O)(=O)N2CCC3=Cc4c(cnn4-c4ccc(F)cc4)C[C@]3(C(=O)c3ccccc3)C2)cc1
- Ki (glucocorticoid receptors [1]; read-out: GR Functional): < 10 nM
- Ki (glucocorticoid receptors [2]; [3]): < 10 nM

SMILES: CC(C)(C)c1ccc(S(=O)(=O)N2CCC3=Cc4c(cnn4-c4ccc(F)cc4)C[C@]3(CN3CCC3)C2)cc1
- Ki (glucocorticoid receptors [1]): 10 to 100 nM
- Ki (glucocorticoid receptors [2]): < 10 nM

SMILES: Cc1ccc(-n2ncc3c2C=C2CCN(S(=O)(=O)c4ccc(C(C)(C)C)cc4)C[C@@]2(Cc2ccccc2)C3)cc1
- Ki (glucocorticoid receptors [1]; read-out: GR Functional): > 100 nM
- Ki (glucocorticoid receptors [2]; [3]): < 10 nM

SMILES: CN(C)C(=O)[C@]12Cc3cnn(-c4ccc(F)cc4)c3C=C1CCN(S(=O)(=O)c1ccc(C(C)(C)C)cc1)C2
- Ki (glucocorticoid receptors [1]; read-out: GR Functional): > 100 nM
- Ki (glucocorticoid receptors [2]; [3]): 10 to 100 nM

SMILES: CCCCn1ncc2c1C=C1CCN(S(=O)(=O)c3ccc(C(C)(C)C)cc3)C[C@@]1(C(=O)OC)C2
- Ki (glucocorticoid receptors [1]; read-out: GR Functional): > 100 nM
- Ki (glucocorticoid receptors [2]; [3]): 10 to 100 nM

SMILES: Cn1cc2c(n1)C=C1CCN(S(=O)(=O)c3ccc(C(C)(C)C)cc3)CC1(Cc1ccccc1)C2 (stereo not shown) [drawing 232]
- Ki (glucocorticoid receptors [1]; read-out: GR Functional): > 100 nM
- Ki (glucocorticoid receptors [2]; [3]): < 10 nM

SMILES: CC(C)(C)S(=O)(=O)N1CCC2=Cc3c(cnn3-c3ccc(F)cc3)C[C@]2(C)C1
- Ki (glucocorticoid receptors [1]; read-out: GR Functional): > 100 nM
- Ki (glucocorticoid receptors [2]; [3]): > 100 nM

SMILES: CN1CCOc2cc(S(=O)(=O)N3CCC4=Cc5[nH]ncc5CC4(Cc4ccccc4)C3)ccc21 (stereo not shown) [drawing 247]
- Ki (glucocorticoid receptors [1]; read-out: GR Functional): > 100 nM
- Ki (glucocorticoid receptors [2]; [3]): < 10 nM

SMILES: O=S(=O)(c1ccccc1)N1CCC2=Cc3c(cnn3-c3ccc(F)cc3)C[C@]2(CN2CCCC2)C1
- Ki (glucocorticoid receptors [1]; read-out: GR Functional): < 10 nM
- Ki (glucocorticoid receptors [2]; [3]): < 10 nM

SMILES: CC(C)(C)c1ccc(S(=O)(=O)N2CCC3=Cc4[nH]ncc4CC3(Cc3ccccc3)C2)cc1 (stereo not shown) [drawing 229]
- Ki (glucocorticoid receptors [1]; SW1353/MMTV-5 cells, antagonism of 50 nM dexamethasone, luciferase, read-out: GR Functional): 10 to 100 nM
- Ki (glucocorticoid receptors [2]; [3]): < 10 nM

SMILES: CC(C)(C)c1ccc(S(=O)(=O)N2CCC3=Cc4c(cnn4-c4ccc(S(N)(=O)=O)cc4)CC3(Cc3ccccc3)C2)cc1 (stereo not shown) [drawing 240]
- Ki (glucocorticoid receptors [1]; read-out: GR Functional): > 100 nM
- Ki (glucocorticoid receptors [2]; [3]): 10 to 100 nM

SMILES: CC(C)S(=O)(=O)N1CCC2=Cc3c(cnn3-c3ccc(F)cc3)CC2(Cc2ccccc2)C1 (stereo not shown)
- Ki (glucocorticoid receptors [1]; read-out: GR Functional): > 100 nM
- Ki (glucocorticoid receptors [2]; [3]): > 100 nM

SMILES: CCNC(=O)[C@]12Cc3cnn(-c4ccc(F)cc4)c3C=C1CCN(S(=O)(=O)c1ccc(C(C)(C)C)cc1)C2
- Ki (glucocorticoid receptors [1]; read-out: GR Functional): > 100 nM
- Ki (glucocorticoid receptors [2]; [3]): < 10 nM

SMILES: C=CCNC[C@]12Cc3cnn(-c4ccc(F)cc4)c3C=C1CCN(S(=O)(=O)c1ccc(C(C)(C)C)cc1)C2
- Ki (glucocorticoid receptors [1]; read-out: GR Functional): 10 to 100 nM
- Ki (glucocorticoid receptors [2]; [3]): < 10 nM

SMILES: CCN(CC)C[C@]12Cc3cnn(-c4ccc(F)cc4)c3C=C1CCN(S(=O)(=O)c1ccccc1)C2
- Ki (glucocorticoid receptors [1]; read-out: GR Functional): 10 to 100 nM
- Ki (glucocorticoid receptors [2]; [3]): < 10 nM
